From patent publication US20230241023A1, “STABILIZATION OF 1,2,4-TRIOXANE COMPOUNDS BY CHLOROGENIC ACIDS” (Artemiflow GmbH, priority 2020, published 2023)

Experiment: Stability of artemisinin in presence of additives (heating in aqueous solution with glucose, 1H NMR quantification)
Format: physicochemical
Conditions: glucose 1 mol equivalent, 93° C. for 90 minutes, open to the atmosphere
Description: Solvents were obtained from commercial suppliers and used without further purification. Dried leaves of Artemisia annua were obtained from ArtemiLife Corp. and Artemisinin was previously prepared and purified by crystallization using the protocols detailed in Horváth, Z.; Horosanskaia, E.; Lee, J. W.; Lorenz, H.; Gilmore, K.; Seeberger, P. H.; Seidel-Morgenstern, A. Recovery of Artemisinin from a Complex Reaction Mixture Using Continuous Chromatography and Crystallization. Org. Process Res. Dev. 2015, 19, 624-634. The Artemisinin crystals obtained thereby were ground prior to use.
Ground coffee used in extractions was preground 100% Arabica beans from Café Intención. Coffee was prepared in a Rowenta C T 3818 Milano coffee maker using size 4 coffee filters (Melitta brand). Coffee beans (100% Arabica) were preground from. 100 g of ground coffee was added to the cone coffee filter in the machine and 1350 mL of water used to make the coffee using the single setting. Coffee was then transferred to a thermos, stored at room temperature, and used without further modification.
Two solvents were tested, tap water and premade black coffee. […] All mixtures were heated to 93° C. for 90 minutes in 10 mL glass vials open to the atmosphere. Halfway through heating, 1-2 mL of tap water was added to compensate for evaporation. […]

## C[C@@H]1CC[C@H]2[C@@H](C)C(=O)O[C@@H]3O[C@@]4(C)CC[C@@H]1[C@]32OO4 [artemisinin]
Example 1 (for comparison): 5 mL tap water
  clean loss of artemisinin (1H NMR): 32%
Example 2 (inventive): 5 mL premade black coffee (source of chlorogenic acids)
  clean loss of artemisinin (1H NMR): 19%
